Results as given in publication PMC9962452, “Modified Linear Peptides Effectively Silence STAT-3 in Breast Cancer and Ovarian Cancer Cell Lines” (Pharmaceutics, 2023).

Experiments:
[1] = system: scrambled siRNA; test: SYBR green dye exclusion assay, binding of peptides to siRNA; settings: scrambled siRNA in normal saline, N/P 0.05 to 40, 30 min room temperature, triplicates, sigmoidal model, value is an N/P ratio
Method: As previously reported, the binding affinity of selected peptides to siRNA was investigated using the SYBR green exclusion assay. The MLPs and scrambled siRNA were mixed in normal saline (in triplicates) with different N/P ratios ranging from 0.05 to 40. The mixture was incubated at room temperature for 30 min to ensure complete complexation of peptides and siRNA. After the incubation time, the complexes were transferred to a black 96-well plate. SYBR green dye solution for this assay was made by diluting 1 part of SYBR green dye with 10,000 parts of purified water. Then, 200 µL of the freshly made SYBR green dye dilution was added to each siRNA complex in the black 96-well plate. The plate was covered with aluminum foil before reading in a micro-plate reader that detected the fluorescent signal (485 nm excitation and 527 nm emission). […] The percentage of the siRNA complexed with the peptide was determined using the following equation: % siRNA bond to peptide=100−Fluorescence signal for complexed siRNA /Fluorescence signal for free siRNA×100 % siRNA bound to the peptide was plotted against a range of nitrogen to phosphate (N/P) ratios used in the experiment, and BR50 (the N/P ratio of the complex required to bind 50% of siRNA) was determined using a sigmoidal model. […]

[2] = system: scrambled siRNA; test: Gel retardation / gel shifting assay, binding of peptides to siRNA; settings: 1% agarose, ethidium bromide, N/P 0 to 60, 30 min room temperature, bands quantified with Image Lab, value is an N/P ratio
Method: In addition to the SYBR green dye exclusion assay described above, the binding affinity of the peptides to siRNA was also determined using the gel retardation/gel shifting assay. Briefly, the MLPs-siRNA complexes were prepared at different N to P ratios ranging from 0 to 60. The N/P ratio of zero represents free siRNA. The tubes containing complexes were incubated at room temperature for 30 min for complete complex formation. After this incubation time, the complexes were mixed with gel-loading dye. Each of the samples was loaded into the wells of 1% agarose gel with (1 μg/mL) ethidium bromide, and […] and 70 Volts were used to run the gel for 20 min. After the run, the gels were visualized under a Bio-Rad imager. The intensity of the bands was quantified by Image Lab software.
To support the data obtained by the SYBR green dye exclusion assay, the binding affinity of the MLPs with siRNA was also determined by the gel retardation assay (Figure 2). For this purpose, the MLPs-siRNA complexes were made in microtubes using purified normal saline at different N to P ratios ranging from 0 to 60. The N to P ratio of 0 represents siRNA only, with no peptide. The solutions in microtubes were allowed to stay at room temperature for 30 min to confer complete complex formation via electrostatic interactions between the MLPs and siRNA. […]

[3] = system: STAT3 in MDA-MB-231 cells; test: Western blot of STAT3 protein after STAT3 siRNA delivery, MDA-MB-231; assay type: cell-based; settings: n = 3
Method: The Western blot assay was used to evaluate the expression of STAT-3 protein in MDA-MB-231 cells using the protocol adopted from our previous study. Briefly, the cells were grown in T25 flasks and treated with MLP-siRNA complexes at N/P ratios of 20 and 40 for 48 h. Following treatment, the cells were harvested as pellets in microtubes and were lysed using RIPA lysis buffer supplanted with a protease inhibitor. The lysate was centrifuged for 15 min at 12,000 rpm at 4 °C to allow the separation of all cell proteins. The supernatant containing all cell proteins was separated in pre-cooled microtubes and the protein was quantified using the standard […].
Following the quantification of protein, the samples representing 15 µg of protein were mixed with gel loading dye and loaded in the wells of pre-formed gels and the electrophoresis was carried out at 200 V for 40 min. After the complete run, the gels were transferred to the Western blotting membrane using the Trans-Blot® machine. After successfully transferring gels onto the membrane, the membrane was blocked in 5% Bovine Serum Albumin in TBS-T buffer consisting of 1X tris-buffered saline and 0.1% Tween 20. […] Finally, the membrane was visualized under the Bio-Rad Imager, and the bands were quantified using Image Lab software. […]

[4] = system: MDA-MB-231 cells; test: Confocal microscopy of siRNA internalization; assay type: cell-based; settings: N/P ratio 40, 24 h, Alexa Fluor 488-labeled siRNA, comparable to Lipofectamine 2000
Method: In order to visualize and locate the internalized siRNA, samples for confocal microscopy were prepared using MDA-MB-231 cells, adopting the protocol described previously by our lab. Briefly, sterile 6-well plates were used, and sterile coverslips were placed at the bottom of each well. MDA-MB-231 cells suspended in 2 mL of media were seeded in each well, and the plates were incubated in an incubator at standard growth conditions. After incubation, the cells were exposed to MLPs-fluorescent-labeled siRNA complexes at a N/P ratio of 40 using the same method described above for the FACS assay. The treated cells were again incubated for 24 h to allow for the internalization of siRNA. After overnight incubation, the media was drained from each well, and the cells were rigorously washed with HBSS three times, followed by fixation with 3.7% formaldehyde in the HBSS solution. Following fixation, the cells were treated with Texas Red for 1 h at room temperature to stain the cell membrane. After 1 h of staining with Texas Red, the cells were stained with DAPI overnight at room temperature in a dark environment to stain the nuclei. Following successful nuclei staining, the coverslips containing fixed stained cells were transferred to slides for viewing under a high-definition confocal microscope (Nikon A1 R). […]

For “AcNH-K(oleyl)-βA-βA-W4-βA-βA-R4-CONH2 [MLP4, oleic acid conjugated peptide, oleyl chain on the Lys side chain]”, the “BC50 ± SD (N/P ratio required for 50% binding of siRNA)” value [1] was 0.963 ± 0.34, the “BC50 (from quantified gel bands)” value [2] was 0.9001 and the “Downregulation of STAT3 protein” value ([3]; N/P ratio 20, 48 h) was over 90%. The “Downregulation of STAT3 protein” value ([3]; N/P ratio 40, 48 h, GAPDH housekeeping) was over 90% and the “Internalization of siRNA seen by confocal microscopy” value [4] was “significant internalization of siRNA in the cytosol”.
